Assay results from patent US10519132B2, “Isocorydine derivatives, preparation method and use thereof” (Lanzhou Institute of Chemical Physics, Chinese Academy of …, priority 2017, dated 2019).
≈ marks a conversion by molar mass, not a printed value. Read-outs that look alike come from different tables or passages of the source.

How the values were obtained:
HepG2 cells [1] = assay: Apoptosis induction, Annexin V and PI double-staining, flow cytometry; type: cell-based, human; settings: HepG2, 24 h; sorafenib 4 μg/mL; combination 4 μg/mL sorafenib+5 μg/mL FICD
Procedure: Different concentrations of FICD were added on the second day, culture was continued for 24 h, cells were collected and washed 3 times with precooled PBS, and adherent cells were digested with trypsin free of EDTA. The solutions were combined, centrifuged, and washed 3 times again with precooled PBS. 400 μL of solution containing 5 μL of V-FITC and 10 μL of PI was added, incubation was performed at room temperature under protection from light, and detection was performed by flowcytometry after 30 min.

human brain glioma U251 = assay: MTT growth inhibition on U251; type: cell-based; settings: U-251, after 48 h of action
Procedure: (§1) By using an MTT method, a sample solution to be tested was added to a 96-well plate in which cancer cells were adherently grown. Culturing was performed for a certain period, and the growth inhibition effect of a compound on a human cancer cell strain for primary screening was measured to determine the anti-cancer activity of the compound.
(§2) Cell culture: A cell incubator was set to conditions of 37° C., 5% CO2, and a saturated humidity, cells were cultured under these conditions, and the cell medium was a DMEM complete medium, wherein 10% fetal bovine serum, 100 IU/mL penicillin, and 100 μg/mL streptomycin were comprised.
(§3) The single cell suspension was diluted to 5×10^3/100 μL after counting, inoculated on a 96-well cell culture plate (triplicate), and adherently cultured overnight; […]
(§4) The culture liquid was discarded, 100 μL of DMSO was added, low-speed oscillation was performed for 10 min by placing on a shaker, and the spectrophotometric value of each well was measured at a wavelength of 490 nm by using a microplate reader. Statistical analysis was performed and tumor cell growth inhibition rate was calculated according to the equation: Growth inhibition rate=(OD value of control group−OD value of experimental group)/OD value of control group.

[2] = In vivo absorption in mice, intragastric versus intraperitoneal administration; design: species or system white Kunming mice; settings: inferred from no statistical difference between administration manners
Description: The aim of this experiment was to investigate in vivo tumor growth inhibition effect of FICD on white Kunming mice bearing ascites hepatoma H22 induced solid tumor, discuss in vivo absorption of FICD in mice, and investigate the druggability and the selection of administration manners of FICD, among different administration manners (intragastric administration and intraperitoneal injection administration). The specific protocol of investigation was as follows:
Test method: For the test method, see Example 24. Results can be seen in FIG. 15, FIG. 16, and Table 5.

[3] = test system: human liver cancer cell strain SMMC-7721; assay: MTT growth inhibition on SMMC-7721; type: cell-based; settings: concentration range of 10-40 μg/mL, one of 6 types of tumor cells
Procedure: as §1, §2, §3, §4

HepG2 cells [4] = assay: Cell cycle distribution by flow cytometry; type: cell-based, human; settings: sorafenib 5 μg/mL, FICD 10 μg/mL, combination 5 μg/mL FICD+10 μg/mL sorafenib
Procedure: 1 mL of 70% precooled (−20° C.) ethanol was added to the cell precipitate, homogenized by pipetting, and fixed at 4° C. overnight. On the second day, HepG2 cells was collected by centrifugation, 2 mL of precooled PBS was added for washing 3 times, 500 μL of PBS containing 50 μg/mL […] (PI) and 100 μg/mL RNaseA was added, and incubation was performed at 4° C. under protection from light for 30 min. Detection was performed on a flow cytometer, and results can be seen in FIG. 9 and FIG. 10.

[5] = test system: human cervical cancer Hela cell strains; assay: MTT growth inhibition on Hela; settings: Homo sapiens, HeLa;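 further: compound exposure of 24, 48 or 72 h in DMEM with 10% fetal bovine serum, MTT absorbance read at 490 nm, inhibition calculated relative to control group OD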
Procedure: as §1, §2
The single cell suspension was diluted to 5×10^3/100 μL after counting, inoculated on a 96-well cell culture plate (triplicate), and adherently cultured overnight;
After 24 h of adhesion, the complete medium was discarded, 100 μL-sample-solutions to be tested having different concentrations were sequentially added to the 96-well plate according to a concentration gradient, and incubations were continued for 24 h, 48 h, and 72 h;
The culture liquid was discarded, a 0.5 mg/mL MTT diluted working liquid was added, and incubation was performed for 4 h by placing in an incubator;
as §4
Culturing was performed for a certain period, the growth inhibition effect of a compound on 3 human cancer cell strains for primary screening was measured to determine the anti-cancer activity of the compound, and a growth inhibition curve was plotted.

liver cancer cells = assay: MTT growth inhibition on liver cancer cells; type: cell-based; settings: Homo sapiens
Procedure: as §1, §2, §3, §4

[6] = test system: ascites hepatoma H22 induced solid tumor; assay: In vivo tumor growth inhibition in mice bearing H22; design: species or system white Kunming mice; settings: for Tumor inhibition rate (%): Table 5

COc1cc(NC(=O)Nc2ccc(Cl)c(C(F)(F)F)c2)c2c(c1O)-c1c(OC)c(OC)cc3c1C(C2)N(C)CC3 (stereo not shown) [Compound 1]
apoptosis rate (HepG2 cells [1]): 11.93%
IC50 (human brain glioma U251): 16.8 ± 0.28 µg/mL (≈ 29.1 µM)
in vivo absorption after oral administration [2]: well absorbed
growth inhibition activity [3]: certain growth inhibition activities
cell cycle distribution compared to the blank control group (HepG2 cells [4]): cells significantly increased in the G2/M phase and decreased in the G0/G1 phase
IC50 ([5]; 48 h, read-out: IC50 Hela, after 48 h of action): 18.6 ± 0.29 µg/mL
IC50 ([5]; read-out: IC50 HeLa, Table 1, MTT): 26.5 µM
IC50 ([5]; read-out: IC50 Hela, Table 2, MTT): 26.5 µM
IC50 (liver cancer cells): 10 to 20 µg/mL (≈ 17.3 to 34.6 µM)
tumor inhibition rates for three administration dosages ([6]; Example 25, 150, 100 and 50 mg/Kg, intragastric or intraperitoneal injection): ≥ 40%
Tumor inhibition rate (%) ([6]; intragastric administration, high dosage 150 mg/Kg): 53.4%
Tumor inhibition rate (%) ([6]; intragastric administration, low dosage 50 mg/Kg): 40.1%
Tumor inhibition rate (%) ([6]; intragastric administration, middle dosage 100 mg/Kg): 48.2%
Tumor inhibition rate (%) ([6]; intraperitoneal injection, high dosage 150 mg/Kg): 53.0%
Tumor inhibition rate (%) ([6]; intraperitoneal injection, low dosage 50 mg/Kg): 40.3%
Tumor inhibition rate (%) ([6]; intraperitoneal injection, middle dosage 100 mg/Kg): 46.3%
